Source: patent US9006455B2 (Bristol-Myers Squibb Company, priority 2009, dated 2015)

System: HCV 1b genotype
Experiment: HCV Replicon assay (HCV 1b genotype)
Format: cell-based
Settings: Hepatitis C virus; HCV 1b genotype replicon; read-out: EC50
Description: An HCV Replicon assay was utilized in the present disclosure, and was prepared, conducted and validated as described in commonly owned PCT/US2006/022197 and in O'Boyle et al., Antimicrob. Agents Chemother., 49(4):1346-1353 (April 2005). Assay methods incorporating luciferase reporters have also been used as described (Apath.com).
HCV-neo replicon cells and replicon cells containing resistance substitutions in the NS5A region were used to test the currently described family of compounds. The compounds were determined to have differing degrees of reduced inhibitory activity on cells containing mutations vs. the corresponding inhibitory potency against wild-type cells. Thus, the compounds of the present disclosure can be effective in inhibiting the function of the HCV NS5A protein and are understood to be as effective in combinations as previously described in application PCT/US2006/022197 and commonly owned WO 04/014852. It should be understood that the compounds of the present disclosure can inhibit multiple genotypes of HCV. […] In one embodiment, compounds of the present disclosure are inhibitory versus 1a, 1b, 2a, 2b, 3a, 4a, and 5a genotypes.

In order of rising EC50:
1. COC(=O)N[C@H](C(=O)N1CCC[C@H]1c1nc2ccc(-c3ccc4cc(-c5ccc6nc([C@@H]7CCCN7C(=O)[C@@H](NC(=O)OC)C(C)C)[nH]c6c5)ccc4c3)cc2[nH]1)C(C)C [Example 2, Methyl((1S)-1-(((2S)-2-(5-(6-(2-((2S)-1-((2S)-2-((methoxycarbonyl)amino)-3-methylbutanoyl)-2-pyrrolidinyl)-1H-benzimidazol-5-yl)-2-naphthyl)-1H-benzimidazol-2-yl)-1-pyrrolidinyl)carbonyl)-2-methylpropyl)carbamate]  0.00218 nM
2. COC(=O)N[C@H](C(=O)N1CCC[C@H]1c1nc2ccc(-c3ccc4cc(-c5ccc6nc([C@@H]7CCCN7C(=O)[C@@H](NC(=O)OC)C7CC7)[nH]c6c5)ccc4c3)cc2[nH]1)C1CC1 [Example 11, Dimethyl(2,6-naphthalenediylbis(1H-benzimidazole-5,2-diyl(2S)-2,1-pyrrolidinediyl((1S)-1-cyclopropyl-2-oxo-2,1-ethanediyl)))biscarbamate]  0.0182 nM
3. COC(=O)N[C@H](C(=O)N1CCC[C@@H]1c1nc2ncc(-c3ccc4cc(-c5cnc6nc([C@@H]7CCCN7C(=O)[C@@H](NC(=O)OC)C(C)C)[nH]c6c5)ccc4c3)cc2[nH]1)C(C)C [Example 23, Methyl((1S)-1-(((2R)-2-(6-(6-(2-((2S)-1-((2S)-2-((methoxycarbonyl)amino)-3-methylbutanoyl)-2-pyrrolidinyl)-1H-imidazo[4,5-b]pyridin-6-yl)-2-naphthyl)-1H-imidazo[4,5-b]pyridin-2-yl)-1-pyrrolidinyl)carbonyl)-2-methylpropyl)carbamate]  0.888 nM

Same assay, conditions: Hepatitis C virus; HCV 1b genotype replicon; read-out: Range (EC50 values against HCV 1b)

First: COC(=O)N[C@H](C(=O)N1C(c2ncc(-c3ccc4cc(-c5cccc(-c6c[nH]c([C@@H]7C[C@H]8C[C@H]8N7C(=O)[C@@H](NC(=O)OC)C(C)C)n6)c5)ccc4c3)[nH]2)CC2CC21)C(C)C (stereo in doubt) [Example 51, Methyl((1S)-1-(((1S,3R,5S)-3-(4-(6-(3-(2-((1R,3S,5R)-2-((2S)-2-((methoxycarbonyl)amino)-3-methylbutanoyl)-2-azabicyclo[3.1.0]hex-3-yl)-1H-imidazol-4-yl)phenyl)-2-naphthyl)-1H-imidazol-2-yl)-2-azabicyclo[3.1.0]hex-2-yl)carbonyl)-2-methylpropyl)carbamate]
Second: COC(=O)N[C@H](C(=O)N1CCC[C@H]1c1ncc(-c2ccc3ccc(-c4ccc5nc([C@@H]6CCCN6C(=O)[C@@H](NC(=O)OC)C(C)C)[nH]c5c4)cc3c2)[nH]1)C(C)C [Example 17, Methyl((1S)-1-(((2S)-2-(4-(7-(2-((2S)-1-((2S)-2-((methoxycarbonyl)amino)-3-methylbutanoyl)-2-pyrrolidinyl)-1H-benzimidazol-5-yl)-2-naphthyl)-1H-imidazol-2-yl)-1-pyrrolidinyl)carbonyl)-2-methylpropyl)carbamate]
The EC50 of the first is lower: 0.0101 to 1 nM for the first, 1.01 to 1000 nM for the second.

`COC(=O)N[C@H](C(=O)N1CCC[C@H]1c1nc2cc(-c3ccc4ccc(-c5ccc6nc([C@@H]7CCCN7C(=O)[C@@H](NC(=O)OC)C(C)C)[nH]c6c5)cc4c3)ccc2[nH]1)C(C)C` [Example 1, Methyl((1S)-1-(((2S)-2-(5-(7-(2-((2S)-1-((2S)-2-((methoxycarbonyl)amino)-3-methylbutanoyl)-2-pyrrolidinyl)-1H-benzimidazol-5-yl)-2-naphthyl)-1H-benzimidazol-2-yl)-1-pyrrolidinyl)carbonyl)-2-methylpropyl)carbamate] and `COC(=O)N[C@@H](C(=O)N1CCC[C@H]1c1nc2cc(-c3ccc4ccc(-c5ccc6nc([C@@H]7CCCN7C(=O)[C@H](NC(=O)OC)C(C)C)[nH]c6c5)cc4c3)ccc2[nH]1)C(C)C` [Example 14, Methyl((1R)-1-(((2S)-2-(5-(7-(2-((2S)-1-((2R)-2-((methoxycarbonyl)amino)-3-methylbutanoyl)-2-pyrrolidinyl)-1H-benzimidazol-5-yl)-2-naphthyl)-1H-benzimidazol-2-yl)-1-pyrrolidinyl)carbonyl)-2-methylpropyl)carbamate] fall in the same range of EC50: 1.01 to 1000 nM for the first, 1.01 to 1000 nM for the second.

Compared with `COC(=O)N[C@H](C(=O)N1CCC[C@H]1c1ncc(-c2ccc(-c3ccc4cc(-c5ccc6nc([C@@H]7CCCN7C(=O)[C@@H](NC(=O)OC)C(C)C)[nH]c6c5)ccc4c3)cc2)[nH]1)C(C)C` [Example 3, Methyl((1S)-1-(((2S)-2-(4-(4-(6-(2-(1-((2S)-2-((methoxycarbonyl)amino)-3-methylbutanoyl)-2-pyrrolidinyl)-1H-benzimidazol-5-yl)-2-naphthyl)phenyl)-1H-imidazol-2-yl)-1-pyrrolidinyl)carbonyl)-2-methylpropyl)carbamate], `COC(=O)N[C@H](C(=O)N1CCC[C@H]1c1ncc(-c2ccc(-c3ccc4ccc(-c5ccc6nc([C@@H]7CCCN7C(=O)[C@@H](NC(=O)OC)C(C)C)[nH]c6c5)cc4c3)cc2)[nH]1)C(C)C` [Example 4, Methyl((1S)-1-(((2S)-2-(4-(4-(7-(2-((2S)-1-((2S)-2-((methoxycarbonyl)amino)-3-methylbutanoyl)-2-pyrrolidinyl)-1H-benzimidazol-5-yl)-2-naphthyl)phenyl)-1H-imidazol-2-yl)-1-pyrrolidinyl)carbonyl)-2-methylpropyl)carbamate] is higher in EC50: 0.0101 to 1 nM for the first, 1.01 to 1000 nM for the second. The first is the more potent here.

Compared with `COC(=O)N[C@@H](C)C(=O)N1CCC[C@H]1c1nc2ccc(-c3ccc4cc(-c5ccc6nc([C@@H]7CCCN7C(=O)[C@H](C)NC(=O)OC)[nH]c6c5)ccc4c3)cc2[nH]1` [Example 5, Methyl((1S)-2-((2S)-2-(5-(6-(2-((2S)-1-(N-(methoxycarbonyl)-L-alanyl)-2-pyrrolidinyl)-1H-benzimidazol-5-yl)-2-naphthyl)-1H-benzimidazol-2-yl)-1-pyrrolidinyl)-1-methyl-2-oxoethyl)carbamate], `COC(=O)N[C@@H](C)C(=O)N1CCC[C@H]1c1nc2cc(-c3ccc4ccc(-c5ccc6nc([C@@H]7CCCN7C(=O)[C@H](C)NC(=O)OC)[nH]c6c5)cc4c3)ccc2[nH]1` [Example 13, Methyl((1S)-2-((2S)-2-(5-(7-(2-((2S)-1-(N-(methoxycarbonyl)-L-alanyl)-2-pyrrolidinyl)-1H-benzimidazol-5-yl)-2-naphthyl)-1H-benzimidazol-2-yl)-1-pyrrolidinyl)-1-methyl-2-oxoethyl)carbamate] is higher in EC50: 0.0101 to 1 nM for the first, 1.01 to 1000 nM for the second.

`O=C([C@@H](c1ccccc1)N1CCCCC1)N1CCC[C@H]1c1nc2ccc(-c3ccc4cc(-c5ccc6nc([C@@H]7CCCN7C(=O)[C@@H](c7ccccc7)N7CCCCC7)[nH]c6c5)ccc4c3)cc2[nH]1` [Example 7, 5,5′-(2,6-Naphthalenediyl)bis(2-((2S)-1-((2R)-2-phenyl-2-(1-piperidinyl)acetyl)-2-pyrrolidinyl)-1H-benzimidazole)] and `O=C([C@@H](c1ccccc1)N1CCCCC1)N1CCC[C@H]1c1nc2cc(-c3ccc4ccc(-c5ccc6nc([C@@H]7CCCN7C(=O)[C@@H](c7ccccc7)N7CCCCC7)[nH]c6c5)cc4c3)ccc2[nH]1` [Example 15, 5,5′-(2,7-Naphthalenediyl)bis(2-((2S)-1-((2R)-2-phenyl-2-(1-piperidinyl)acetyl)-2-pyrrolidinyl)-1H-benzimidazole)] fall in the same range of EC50: 0.0101 to 1 nM for the first, 0.0101 to 1 nM for the second.

Compared with `CN(C)[C@@H](C(=O)N1CCC[C@H]1c1nc2ccc(-c3ccc4cc(-c5ccc6nc([C@@H]7CCCN7C(=O)[C@@H](c7ccccc7)N(C)C)[nH]c6c5)ccc4c3)cc2[nH]1)c1ccccc1` [Example 8, (1R)-2-((2S)-2-(5-(6-(2-((2S)-1-((2R)-2-(Dimethylamino)-2-phenylacetyl)-2-pyrrolidinyl)-1H-benzimidazol-6-yl)-2-naphthyl)-1H-benzimidazol-2-yl)-1-pyrrolidinyl)-N,N-dimethyl-2-oxo-1-phenylethanamine], `COC(=O)N[C@@H](C(=O)N1CCC[C@H]1c1nc2cc(-c3ccc4ccc(-c5ccc6nc([C@@H]7CCCN7C(=O)[C@H](NC(=O)OC)c7ccccc7)[nH]c6c5)cc4c3)ccc2[nH]1)c1ccccc1` [Example 12, Dimethyl(2,7-naphthalenediylbis(1H-benzimidazole-5,2-diyl(2S)-2,1-pyrrolidinediyl((1R)-2-oxo-1-phenyl-2,1-ethanediyl)))biscarbamate] is higher in EC50: 0.0101 to 1 nM for the first, 1.01 to 1000 nM for the second.

`COC(=O)N[C@H](C(=O)N1CCC[C@H]1c1nc2ccc(-c3ccc4cc(-c5ccc6nc([C@@H]7CCCN7C(=O)[C@@H](NC(=O)OC)C7CC7)[nH]c6c5)ccc4c3)cc2[nH]1)C1CC1` [Example 11, Dimethyl(2,6-naphthalenediylbis(1H-benzimidazole-5,2-diyl(2S)-2,1-pyrrolidinediyl((1S)-1-cyclopropyl-2-oxo-2,1-ethanediyl)))biscarbamate] and `COC(=O)N[C@H](C(=O)N1CCC[C@H]1c1nc2ncc(-c3ccc4cc(-c5cnc6nc([C@@H]7CCCN7C(=O)[C@@H](NC(=O)OC)C(C)C)[nH]c6c5)ccc4c3)cc2[nH]1)C(C)C` [Example 22, Methyl((1S)-1-(((2S)-2-(6-(6-(2-((2S)-1-((2S)-2-((methoxycarbonyl)amino)-3-methylbutanoyl)-2-pyrrolidinyl)-1H-imidazo[4,5-b]pyridin-6-yl)-2-naphthyl)-1H-imidazo[4,5-b]pyridin-2-yl)-1-pyrrolidinyl)carbonyl)-2-methylpropyl)carbamate] fall in the same range of EC50: 0.0101 to 1 nM for the first, 0.0101 to 1 nM for the second.

`CCN(CC)[C@@H](C(=O)N1[C@@H]2C[C@@H]2C[C@H]1c1nc2ccc(-c3ccc4cc(-c5ccc6nc([C@@H]7C[C@H]8C[C@H]8N7C(=O)[C@@H](c7ccccc7)N(CC)CC)[nH]c6c5)ccc4c3)cc2[nH]1)c1ccccc1` [Example 19, (1R)-2-((1R,3S,5R)-3-(5-(6-(2-((1R,3S,5R)-2-((2R)-2-(Diethylamino)-2-phenylacetyl)-2-azabicyclo[3.1.0]hex-3-yl)-1H-benzimidazol-6-yl)-2-naphthyl)-1H-benzimidazol-2-yl)-2-azabicyclo[3.1.0]hex-2-yl)-N,N-diethyl-2-oxo-1-phenylethanamine] and `COC(=O)N[C@H](C(=O)N1CCC[C@@H]1c1nc2ncc(-c3ccc4cc(-c5cnc6nc([C@@H]7CCCN7C(=O)[C@@H](NC(=O)OC)C(C)C)[nH]c6c5)ccc4c3)cc2[nH]1)C(C)C` [Example 23, Methyl((1S)-1-(((2R)-2-(6-(6-(2-((2S)-1-((2S)-2-((methoxycarbonyl)amino)-3-methylbutanoyl)-2-pyrrolidinyl)-1H-imidazo[4,5-b]pyridin-6-yl)-2-naphthyl)-1H-imidazo[4,5-b]pyridin-2-yl)-1-pyrrolidinyl)carbonyl)-2-methylpropyl)carbamate] fall in the same range of EC50: 0.0101 to 1 nM for the first, 0.0101 to 1 nM for the second.
